In US12139520B2 (priority 2020, dated 2024):
Bridge positions count the residues as written; N and C are the ends. Square brackets hold non-standard residues; d marks the D form. Peptide text beside a SMILES is read from it. Hyp = O=C(O)[C@@H]1C[C@@H](O)CN1

Experiments:
hAMY3 receptor = biological target: T1, hAMY3 receptor (Homo sapiens, UniProt O60896+P30988); test: cAMP assay for in vitro receptor activation, hAMY3-R; assay type: cell-based; conditions: cAMP assay, hAMY3 receptor; read-out: hAMY3R EC50
T1 sequence (P30988 25-474): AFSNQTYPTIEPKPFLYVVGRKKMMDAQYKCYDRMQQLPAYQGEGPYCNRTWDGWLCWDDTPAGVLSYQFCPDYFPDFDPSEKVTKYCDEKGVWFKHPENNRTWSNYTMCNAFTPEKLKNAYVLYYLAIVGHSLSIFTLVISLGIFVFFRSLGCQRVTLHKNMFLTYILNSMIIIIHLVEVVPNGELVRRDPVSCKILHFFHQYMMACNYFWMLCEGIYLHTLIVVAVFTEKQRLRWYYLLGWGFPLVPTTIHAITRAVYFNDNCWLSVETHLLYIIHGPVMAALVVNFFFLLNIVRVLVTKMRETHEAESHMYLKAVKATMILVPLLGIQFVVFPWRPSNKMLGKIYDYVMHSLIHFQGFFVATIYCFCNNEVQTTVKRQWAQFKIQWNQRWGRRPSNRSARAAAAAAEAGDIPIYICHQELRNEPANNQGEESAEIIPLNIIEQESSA
T1 sequence (O60896 24-148 partner): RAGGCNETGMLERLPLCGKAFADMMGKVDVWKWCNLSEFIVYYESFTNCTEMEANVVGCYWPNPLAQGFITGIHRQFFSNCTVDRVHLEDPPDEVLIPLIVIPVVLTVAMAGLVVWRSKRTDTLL
Method in brief: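 Monoclonal cell line stably overexpressing hAMY3 receptor, plated in DPBS with 0.05% casein and 0.5 mM IBMX, was stimulated with graded compound doses for 30 min at room temperature. cAMP accumulation was read by time-resolved FRET one hour after adding detection reagents.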

[1] = Physical stability of peptide analogues (Thioflavin T fibrillation); assay type: physicochemical; conditions: maximum ThT signal normalized between hAMY maximum and buffer background; 40° C., shaking, four days; pH 7 per table title
Method in brief: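 Samples are stressed at 40 °C for four days, being shaken at 700 rpm before each 10-min fluorescence reading of 4 μM Thioflavin T. Buffers were pH 4 acetate or pH 7 phosphate. Reported values are smoothed maximum ThT signals as a percentage of the hAMY-to-background range.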

EC50 (hAMY3 receptor) [nM] | Max ThT signal (%) [1] [%] | SMILES
0.112 | 6.000 | CC[C@H](C)[C@H](NC(=O)[C@H](CCC(N)=O)NC(=O)[C@H](Cc1c[nH]cn1)NC(=O)[C@H](C)NC(=O)[C@H](CC(C)C)NC(=O)[C@H](CCCNC(=N)N)NC(=O)[C@H](CCC(N)=O)NC(=O)[C@@H](NC(=O)[C@@H](NC(=O)[C@@H]1CSSC[C@H](NC(=O)[C@@H](N)CCCCN)C(=O)N[C@@H](CCCNC(=N)N)C(=O)N[C@@H](CCSC)C(=O)NCC(=O)N[C@@H]([C@@H](C)O)C(=O)N1)[C@@H](C)O)C(C)C)C(=O)N[C@@H](Cc1ccc(O)cc1)C(=O)N[C@@H](CCC(N)=O)C(=O)N[C@@H](Cc1ccccc1)C(=O)N[C@H](C(=O)N[C@@H](CC(=O)O)C(=O)N[C@@H](CCCCN)C(=O)N[C@@H](CC(=O)O)C(=O)N[C@@H](CCCCN)C(=O)N[C@@H](CC(=O)O)C(=O)N[C@@H](CC(N)=O)C(=O)N[C@H](C(=O)N[C@@H](C)C(=O)N1CCC[C@H]1C(=O)N[C@@H](CCCNC(=N)N)C(=O)N[C@@H](CO)C(=O)N[C@@H](CCCCN)C(=O)N[C@H](C(=O)N[C@@H](CO)C(=O)N1CCC[C@H]1C(=O)N[C@@H](CCC(N)=O)C(=O)N[C@H](C(=O)N1C[C@H](O)C[C@H]1C(N)=O)[C@@H](C)O)[C@@H](C)CC)C(C)C)[C@@H](C)O [compound 194] (H-KCRMGTCTVQRLAHQIYQFTDKDKDNVAPRSKISPQT[Hyp]-NH2; disulfide 2-7; N-terminus assumed)
0.017 | 24.850 | CC[C@H](C)[C@H](NC(=O)[C@H](CCCCN)NC(=O)[C@@H](NC(=O)[C@H](CCCNC(=N)N)NC(=O)[C@@H]1CCCN1C(=O)[C@H](C)NC(=O)[C@@H](NC(=O)[C@H](CC(N)=O)NC(=O)[C@H](CC(=O)O)NC(=O)[C@H](CCCCN)NC(=O)[C@H](CC(=O)O)NC(=O)[C@H](CCCCN)NC(=O)[C@H](CC(=O)O)NC(=O)[C@@H](NC(=O)[C@H](Cc1ccccc1)NC(=O)[C@H](CCC(N)=O)NC(=O)[C@H](Cc1ccc(O)cc1)NC(=O)[C@@H](NC(=O)[C@H](CCC(N)=O)NC(=O)[C@H](Cc1c[nH]cn1)NC(=O)[C@H](C)NC(=O)[C@H](CC(C)C)NC(=O)[C@H](Cc1c[nH]c2ccccc12)NC(=O)[C@H](CCC(N)=O)NC(=O)[C@@H](NC(=O)[C@@H](NC(=O)[C@@H]1CSSC[C@H](NC(=O)CN)C(=O)N[C@@H](CCCNC(=N)N)C(=O)N[C@@H](Cc2ccccc2)C(=O)NCC(=O)N[C@@H]([C@@H](C)O)C(=O)N1)[C@@H](C)O)C(C)C)[C@@H](C)CC)[C@@H](C)O)C(C)C)[C@@H](C)O)C(=O)NCC(=O)N1CCC[C@H]1C(=O)N[C@@H](CC(N)=O)C(=O)NCC(=O)N1C[C@H](O)C[C@H]1C(N)=O [compound 343] (H-GCRFGTCTVQWLAHQIYQFTDKDKDNVAPRTKIGPNG[Hyp]-NH2; disulfide 2-7; N-terminus assumed)
0.157 | 2.700 | CC[C@H](C)[C@H](NC(=O)[C@H](CCC(N)=O)NC(=O)[C@H](Cc1c[nH]cn1)NC(=O)[C@H](C)NC(=O)[C@H](CC(C)C)NC(=O)[C@H](CCCNC(=N)N)NC(=O)[C@H](CCC(N)=O)NC(=O)[C@@H](NC(=O)[C@@H](NC(=O)[C@@H]1CSSC[C@H](NC(=O)CN)C(=O)N[C@@H](CCCNC(=N)N)C(=O)N[C@@H]([C@@H](C)O)C(=O)NCC(=O)N[C@@H]([C@@H](C)O)C(=O)N1)[C@@H](C)O)C(C)C)C(=O)N[C@@H](Cc1ccc(O)cc1)C(=O)N[C@@H](CCC(N)=O)C(=O)N[C@@H](Cc1ccccc1)C(=O)N[C@H](C(=O)N[C@@H](CC(=O)O)C(=O)N[C@@H](CCCCN)C(=O)N[C@@H](CC(=O)O)C(=O)N[C@@H](CCCCN)C(=O)N[C@@H](CC(=O)O)C(=O)N[C@@H](CC(N)=O)C(=O)N[C@H](C(=O)N[C@@H](C)C(=O)N1CCC[C@H]1C(=O)N[C@@H](CCCNC(=N)N)C(=O)N[C@H](C(=O)N[C@@H](CC(N)=O)C(=O)N[C@H](C(=O)N[C@@H](CO)C(=O)N1CCC[C@H]1C(=O)N[C@@H](CCC(N)=O)C(=O)NCC(=O)N1C[C@H](O)C[C@H]1C(N)=O)[C@@H](C)CC)[C@@H](C)O)C(C)C)[C@@H](C)O [compound 214] (H-GCRTGTCTVQRLAHQIYQFTDKDKDNVAPRTNISPQG[Hyp]-NH2; disulfide 2-7; N-terminus assumed)
0.053 | 2.000 | CC[C@H](C)[C@H](NC(=O)[C@H](CCC(N)=O)NC(=O)[C@H](Cc1c[nH]cn1)NC(=O)[C@H](C)NC(=O)[C@H](CC(C)C)NC(=O)[C@H](CCCNC(=N)N)NC(=O)[C@H](CCC(N)=O)NC(=O)[C@@H](NC(=O)[C@@H](NC(=O)[C@@H]1CSSC[C@H](NC(=O)CN)C(=O)N[C@@H](CCCNC(=N)N)C(=O)N[C@@H]([C@@H](C)O)C(=O)NCC(=O)N[C@@H]([C@@H](C)O)C(=O)N1)[C@@H](C)O)C(C)C)C(=O)N[C@@H](Cc1ccc(O)cc1)C(=O)N[C@@H](CCC(N)=O)C(=O)N[C@@H](Cc1ccccc1)C(=O)N[C@H](C(=O)N[C@@H](CC(=O)O)C(=O)N[C@@H](CCCCN)C(=O)N[C@@H](CC(=O)O)C(=O)N[C@@H](CCCCN)C(=O)N[C@@H](CC(=O)O)C(=O)N[C@@H](CC(N)=O)C(=O)N[C@H](C(=O)N[C@@H](C)C(=O)N1CCC[C@H]1C(=O)N[C@@H](CCCNC(=N)N)C(=O)N[C@H](C(=O)N[C@@H](CC(N)=O)C(=O)N[C@H](C(=O)N[C@@H](CO)C(=O)N1CCC[C@H]1C(=O)N[C@@H](CC(N)=O)C(=O)NCC(=O)N1C[C@H](O)C[C@H]1C(N)=O)C(C)C)[C@@H](C)O)C(C)C)[C@@H](C)O [compound 163] (H-GCRTGTCTVQRLAHQIYQFTDKDKDNVAPRTNVSPNG[Hyp]-NH2; disulfide 2-7; N-terminus assumed)
0.015 | 14.200 | CC[C@H](C)[C@H](NC(=O)[C@H](CCC(N)=O)NC(=O)[C@H](Cc1c[nH]cn1)NC(=O)[C@H](C)NC(=O)[C@H](CC(C)C)NC(=O)[C@H](CCCNC(=N)N)NC(=O)[C@H](CCC(N)=O)NC(=O)[C@@H](NC(=O)[C@@H](NC(=O)[C@@H]1CSSC[C@H](NC(=O)CN)C(=O)N[C@@H](CCCNC(=N)N)C(=O)N[C@@H]([C@@H](C)O)C(=O)NCC(=O)N[C@@H]([C@@H](C)O)C(=O)N1)[C@@H](C)O)C(C)C)C(=O)N[C@@H](Cc1ccc(O)cc1)C(=O)N[C@@H](CCC(N)=O)C(=O)N[C@@H](Cc1ccccc1)C(=O)N[C@H](C(=O)N[C@@H](CC(=O)O)C(=O)N[C@@H](CCCCN)C(=O)N[C@@H](CC(=O)O)C(=O)N[C@@H](CCCCN)C(=O)N[C@@H](CC(=O)O)C(=O)N[C@@H](CC(N)=O)C(=O)N[C@H](C(=O)N[C@@H](C)C(=O)N1CCC[C@H]1C(=O)N[C@@H](CCCNC(=N)N)C(=O)N[C@H](C(=O)N[C@@H](CC(N)=O)C(=O)N[C@H](C(=O)NCC(=O)N1CCC[C@H]1C(=O)N[C@@H](CC(N)=O)C(=O)NCC(=O)N[C@@H](Cc1ccc(O)cc1)C(N)=O)C(C)C)[C@@H](C)O)C(C)C)[C@@H](C)O [compound 84] (H-GCRTGTCTVQRLAHQIYQFTDKDKDNVAPRTNVGPNGY-NH2; disulfide 2-7; N-terminus assumed)
0.031 | 5.200 | CC[C@H](C)[C@H](NC(=O)[C@H](CCC(N)=O)NC(=O)[C@H](Cc1c[nH]cn1)NC(=O)[C@H](C)NC(=O)[C@H](CC(C)C)NC(=O)[C@H](CCCNC(=N)N)NC(=O)[C@H](CCC(N)=O)NC(=O)[C@@H](NC(=O)[C@@H](NC(=O)[C@@H]1CSSC[C@H](NC(=O)CN)C(=O)N[C@@H](CCCNC(=N)N)C(=O)N[C@@H](Cc2ccccc2)C(=O)NCC(=O)N[C@@H]([C@@H](C)O)C(=O)N1)[C@@H](C)O)C(C)C)C(=O)N[C@@H](Cc1ccc(O)cc1)C(=O)N[C@@H](CCC(N)=O)C(=O)N[C@@H](Cc1ccccc1)C(=O)N[C@H](C(=O)N[C@@H](CC(=O)O)C(=O)N[C@@H](CCCCN)C(=O)N[C@@H](CC(=O)O)C(=O)N[C@@H](CCCCN)C(=O)N[C@@H](CC(=O)O)C(=O)N[C@@H](CC(N)=O)C(=O)N[C@H](C(=O)N[C@@H](C)C(=O)N1CCC[C@H]1C(=O)N[C@@H](CCCNC(=N)N)C(=O)N[C@H](C(=O)N[C@@H](CCCCN)C(=O)N[C@H](C(=O)N[C@@H](CO)C(=O)N1CCC[C@H]1C(=O)N[C@@H](CCC(N)=O)C(=O)NCC(=O)N1C[C@H](O)C[C@H]1C(N)=O)C(C)C)[C@@H](C)O)C(C)C)[C@@H](C)O [compound 132] (H-GCRFGTCTVQRLAHQIYQFTDKDKDNVAPRTKVSPQG[Hyp]-NH2; disulfide 2-7; N-terminus assumed)
